The target of the test is N-terminally GST-tagged HCK (75-526) (Homo sapiens (Human), UniProt P08631). Briefly: HCK Kinase Assay (ProFluor Src-Family Kinase Assay). It is filed as biochemical. The protocol: The procedure of ProFluor Src-Family Kinase Assay (Promega, Cat. No. V1271) was then followed. To the reaction was added 5 μL Protease solution and the mixture was incubated for 60 minutes at room temperature (22-25° C.), followed by 5 μL Stabilizer solution. The fluorescence signal was read on an Envision multilabel plate reader (Perkin Elmer). The R110 was then read at an excitation wavelength of 485 nm and an emission wavelength of 530 nm. The AMC signal was read at an excitation wavelength of 355 nm and an emission wavelength of 460 nm.

Setting [1] is: HCK inhibitory activity, 50 μM ATP, read-out: HCK Activity.

Each structure is given as a SMILES string. Read-outs that look alike come from different tables or passages of the source.

Sequence of N-terminally GST-tagged HCK (75-526) (P08631 75-526): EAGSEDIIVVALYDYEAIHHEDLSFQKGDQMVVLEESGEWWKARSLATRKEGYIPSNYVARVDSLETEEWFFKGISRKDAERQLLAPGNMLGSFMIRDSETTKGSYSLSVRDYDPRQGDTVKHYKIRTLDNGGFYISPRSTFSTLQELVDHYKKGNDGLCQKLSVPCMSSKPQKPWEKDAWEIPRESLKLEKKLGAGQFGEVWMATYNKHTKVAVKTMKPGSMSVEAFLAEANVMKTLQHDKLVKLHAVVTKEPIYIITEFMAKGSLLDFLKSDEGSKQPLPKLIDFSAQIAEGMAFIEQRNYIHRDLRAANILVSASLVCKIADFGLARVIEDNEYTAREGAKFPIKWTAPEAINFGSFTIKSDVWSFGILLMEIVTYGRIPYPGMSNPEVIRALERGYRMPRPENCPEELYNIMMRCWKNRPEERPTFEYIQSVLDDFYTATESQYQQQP

On to `Nc1ncnc2c1c(-c1ccc(Oc3ccccc3)cc1)cn2[C@H]1CC[C@@H](N2CCC[C@@H](N)C2)CC1` [Example 58, 7-((cis)-4-((R)-3-aminopiperidin-1-yl)cyclohexyl)-5-(4-phenoxyphenyl)-7H-pyrrolo[2,3-d]pyrimidin-4-amine], for which the IC50 under setting [1] lay in the range of 50 to 250 nM.
With `CN1CCN([C@H]2CC[C@@H](n3cc(-c4ccc(Oc5ccccc5)cc4)c4c(N)ncnc43)CC2)CC1` [Example 2, 7-((cis)-4-(4-methylpiperazin-1-yl)cyclohexyl)-5-(4-phenoxyphenyl)-7H-pyrrolo[2,3-d]pyrimidin-4-amine], the IC50 was 50 to 250 nM.
Turning to `COc1cc(-c2cn([C@H]3CO[C@@H](C4CCN(C)CC4)OC3)c3ncnc(N)c23)ccc1Oc1ccccc1` [Example 133, 5-(3-methoxy-4-phenoxyphenyl)-7-((cis)-2-(1-methylpiperidin-4-yl)-1,3-dioxan-5-yl)-7H-pyrrolo[2,3-d]pyrimidin-4-amine], under setting [1], the IC50 was below 50 nM.
Still for that read-out and setting: then `Nc1ncnc2c1c(-c1ccc(Oc3ccccc3)cc1)cn2C1CCN(C2CCNC(CO)C2)CC1` (stereo not drawn) [Example 157, (4-(4-amino-5-(4-phenoxyphenyl)-7H-pyrrolo[2,3-d]pyrimidin-7-yl)-[1,4′-bipiperidin]-2′-yl)methanol], with below 50 nM; and `Nc1ncnc2c1c(-c1ccc(Oc3ccccc3)cc1)cn2[C@H]1CC[C@H](N2CCN3CCCC3C2)CC1` (stereo partly drawn) [Example 44, 7-((trans)-4-(hexahydropyrrolo[1,2-a]pyrazin-2(1H)-yl)cyclohexyl)-5-(4-phenoxyphenyl)-7H-pyrrolo[2,3-d]pyrimidin-4-amine], with below 50 nM.
`CC[C@H]1CN([C@H]2CC[C@H](n3nc(-c4ccc(Oc5ccccc5)cc4F)c4c(N)ncnc43)CC2)CCN1` [Example 31, 1-((trans)-4-((S)-3-ethylpiperazin-1-yl)cyclohexyl)-3-(2-fluoro-4-phenoxyphenyl)-1H-pyrazolo[3,4-d]pyrimidin-4-amine]: under setting [1], the IC50 was below 50 nM.
The same measure, in the same setting: then `CN[C@@H]1CCCN([C@H]2CC[C@H](n3cc(-c4ccc(Oc5ccccc5)cc4)c4c(N)ncnc43)CC2)C1` [Example 60, 7-((trans)-4-((R)-3-(methylamino)piperidin-1-yl)cyclohexyl)-5-(4-phenoxyphenyl)-7H-pyrrolo[2,3-d]pyrimidin-4-amine], with below 50 nM; and `Nc1ncnc2c1c(-c1ccc(Oc3ccccc3)cc1)cn2[C@H]1CC[C@H](N2CCNC3(CC3)C2)CC1` [Example 35, 7-((trans)-4-(4,7-diazaspiro[2.5]octan-7-yl)cyclohexyl)-5-(4-phenoxyphenyl)-7H-pyrrolo[2,3-d]pyrimidin-4-amine], with below 50 nM; and `Nc1ncnc2c1c(-c1ccc(Oc3ccccc3)cc1)cn2C1CCC2(CCNCC2)CC1` [Example 141, 5-(4-phenoxyphenyl)-7-(3-azaspiro[5.5]undecan-9-yl)-7H-pyrrolo[2,3-d]pyrimidin-4-amine], with below 50 nM.
Take `Nc1ncnc2c1c(-c1ccc(Oc3ccccc3)cc1)cn2C1CCN(C(CO)CO)CC1` [Example 161, 2-(4-(4-amino-5-(4-phenoxyphenyl)-7H-pyrrolo[2,3-d]pyrimidin-7-yl)piperidin-1-yl)propane-1,3-diol]: the IC50 under setting [1] was below 50 nM.
Take `Nc1ncn([C@H]2CC[C@@H](n3cc(-c4ccc(Oc5ccccc5)cc4)c4c(N)ncnc43)CC2)n1` [Example 82, 7-((cis)-4-(3-amino-1H-1,2,4-triazol-1-yl)cyclohexyl)-5-(4-phenoxyphenyl)-7H-pyrrolo[2,3-d]pyrimidin-4-amine]: under setting [1], the IC50 is below 50 nM.
Regarding `CN1CCN([C@H]2CC[C@H](n3cc(-c4ccc(NC(=O)Nc5cc(C(C)(C)C)on5)cc4)c4c(N)ncnc43)CC2)CC1` [Example 120, 1-(4-(4-amino-7-((trans)-4-(4-methylpiperazin-1-yl)cyclohexyl)-7H-pyrrolo[2,3-d]pyrimidin-5-yl)phenyl)-3-(5-(tert-butyl)isoxazol-3-yl)urea], under setting [1], the IC50 was below 50 nM.
On to `Nc1ncnc2c1c(-c1ccc(Oc3ccccc3)cc1)cn2[C@H]1CC[C@H](N2CCN3CCC[C@H]3C2)CC1` [Example 46, 7-((trans)-4-((S)-hexahydropyrrolo[1,2-a]pyrazin-2(1H)-yl)cyclohexyl)-5-(4-phenoxyphenyl)-7H-pyrrolo[2,3-d]pyrimidin-4-amine], for which the IC50 under setting [1] was below 50 nM.
As to `Nc1ncnc2c1c(-c1ccc(Oc3ccccc3)cc1)cn2[C@H]1CC[C@@H](N2C[C@@H](O)[C@@H](O)C2)CC1` [Example 76, (3R,4S)-1-((cis)-4-(4-amino-5-(4-phenoxyphenyl)-7H-pyrrolo[2,3-d]pyrimidin-7-yl)cyclohexyl)pyrrolidine-3,4-diol], the IC50 under setting [1] fell in the range of 50 to 250 nM.
Same read-out and setting: the value for `COc1cc(-c2cn(C3CCN(C4CCNCC4)CC3)c3ncnc(N)c23)ccc1Oc1ccccc1` [Example 150, 7-([1,4′-bipiperidin]-4-yl)-5-(3-methoxy-4-phenoxyphenyl)-7H-pyrrolo[2,3-d]pyrimidin-4-amine] was below 50 nM; that for `CN1CCC(N2CCC(n3nc(-c4ccc(Oc5ccccc5)cc4F)c4c(N)ncnc43)CC2)CC1` [Example 147, 3-(2-fluoro-4-phenoxyphenyl)-1-(1′-methyl-[1,4′-bipiperidin]-4-yl)-1H-pyrazolo[3,4-d]pyrimidin-4-amine] was below 50 nM; that for `C[C@H]1CN([C@H]2CC[C@H](n3cc(-c4ccc(Oc5ccccc5)cc4F)c4c(N)ncnc43)CC2)CCN1` [Example 126, 5-(2-fluoro-4-phenoxyphenyl)-7-((trans)-4-((S)-3-methylpiperazin-1-yl)cyclohexyl)-7H-pyrrolo[2,3-d]pyrimidin-4-amine] was below 50 nM.
For the compound `Nc1ncnc2c1c(-c1ccc(Oc3ccccc3)cc1)nn2[C@H]1CC[C@H](n2cc(CO)cn2)CC1` [Example 138, (1-((trans)-4-(4-Amino-3-(4-phenoxyphenyl)-1H-pyrazolo[3,4-d]pyrimidin-1-yl)cyclohexyl)-1H-pyrazol-4-yl)methanol], the IC50 under setting [1] was below 50 nM.
On the same count and under the same terms, the value for `Nc1ncnc2c1c(-c1ccc(Oc3ccccc3)cc1)cn2[C@H]1CC[C@H](N2C[C@@H](O)[C@@H](O)C2)CC1` [Example 75, (3R,4S)-1-((trans)-4-(4-amino-5-(4-phenoxyphenyl)-7H-pyrrolo[2,3-d]pyrimidin-7-yl)cyclohexyl)pyrrolidine-3,4-diol] was 50 to 250 nM; that for `C[C@H]1CN([C@H]2CC[C@H](c3cc(-c4ccc(Oc5ccccc5)cc4)c4c(N)ncnn43)CC2)CCN1` [Example 169, 7-((trans)-4-((S)-3-Methylpiperazin-1-yl)cyclohexyl)-5-(4-phenoxyphenyl)pyrrolo[2,1-f][1,2,4]triazin-4-amine] was below 50 nM.
For the compound `CCN1CCC(N2CCC(n3nc(-c4ccc(Oc5ccccc5)cc4F)c4c(N)ncnc43)CC2)CC1` [Example 152, 1-(1′-ethyl-[1,4′-bipiperidin]-4-yl)-3-(2-fluoro-4-phenoxyphenyl)-1H-pyrazolo[3,4-d]pyrimidin-4-amine], the IC50 under setting [1] is below 50 nM.
For the compound `Nc1ncnc2c1c(-c1ccc(Oc3ccccc3)cc1)cn2[C@H]1CC[C@H](N2CCS(=O)(=O)CC2)CC1` [Example 65, 4-((trans)-4-(4-amino-5-(4-phenoxyphenyl)-7H-pyrrolo[2,3-d]pyrimidin-7-yl)cyclohexyl)thiomorpholine 1,1-dioxide], the IC50 under setting [1] is 50 to 250 nM.
Regarding `Nc1ncnc2c1c(-c1ccc(Oc3ccccc3)cc1)cn2[C@H]1CC[C@H](N2CCC(S(N)(=O)=O)CC2)CC1` [Example 69, 1-((trans)-4-(4-amino-5-(4-phenoxyphenyl)-7H-pyrrolo[2,3-d]pyrimidin-7-yl)cyclohexyl)piperidine-4-sulfonamide], the IC50 under setting [1] is 50 to 250 nM.
As to `COc1cc(-c2nn([C@H]3CC[C@H](N4CCN(C)CC4)CC3)c3ncnc(N)c23)ccc1Oc1ccccc1` [Example 110], the IC50 under setting [1] was below 50 nM.
For the compound `CN1CCN([C@H]2CC[C@H](n3cc(-c4ccc(Cc5ccccc5)cc4)c4c(N)ncnc43)CC2)CC1` [Example 115, 5-(4-benzylphenyl)-7-((trans)-4-(4-methylpiperazin-1-yl)cyclohexyl)-7H-pyrrolo[2,3-d]pyrimidin-4-amine], the IC50 under setting [1] is below 50 nM.
For `CN1CCN([C@H]2CC[C@H](n3nc(-c4c(F)cc(Oc5ccccc5)cc4F)c4c(N)ncnc43)CC2)CC1` [Example 107, 3-(2,6-difluoro-4-phenoxyphenyl)-1-((trans)-4-(4-methylpiperazin-1-yl)cyclohexyl)-1H-pyrazolo[3,4-d]pyrimidin-4-amine], the IC50 under setting [1] was below 50 nM.
The same measure, in the same setting: then `Nc1ncnc2c1c(-c1ccc(Oc3ccccc3)cc1)cn2[C@H]1CC[C@H](N2CCC3(CCNC3)C2)CC1` (relative stereo) [Example 136, 7-((trans)-4-(2,7-diazaspiro[4.4]nonan-2-yl)cyclohexyl)-5-(4-phenoxyphenyl)-7H-pyrrolo[2,3-d]pyrimidin-4-amine], with 50 to 250 nM; and `C[C@H]1CN([C@H]2CC[C@@H](n3cc(-c4ccc(NC(=O)Nc5cc(C(C)(C)C)on5)cc4)c4c(N)ncnc43)CC2)CCN1` [Example 130, 1-(4-(4-amino-7-((cis)-4-((S)-3-methylpiperazin-1-yl)cyclohexyl)-7H-pyrrolo[2,3-d]pyrimidin-5-yl)phenyl)-3-(5-(tert-butyl)isoxazol-3-yl)urea], with 50 to 250 nM.
Turning to `Nc1ncnc2c1c(-c1ccc(Oc3ccccc3)cc1)cn2[C@H]1CC[C@H](N2CC(N)C2)CC1` [Example 77, 7-((trans)-4-(3-aminoazetidin-1-yl)cyclohexyl)-5-(4-phenoxyphenyl)-7H-pyrrolo[2,3-d]pyrimidin-4-amine], the IC50 under setting [1] is below 50 nM.
As to `CN[C@@H]1CCCN([C@H]2CC[C@@H](n3cc(-c4ccc(Oc5ccccc5)cc4)c4c(N)ncnc43)CC2)C1` [Example 61, 7-((cis)-4-((R)-3-(methylamino)piperidin-1-yl)cyclohexyl)-5-(4-phenoxyphenyl)-7H-pyrrolo[2,3-d]pyrimidin-4-amine], the IC50 under setting [1] is below 50 nM.
